Legend:
[1] = In vivo pharmacokinetic study, rat; conditions: for DNAUC / T 1/2: Rat; for clearance / Vd / bioavailability: rat, blood; for clearance / Vd: intravenous; for Vd: read-out: Vss; for bioavailability: oral
Experimental: (§1) In vivo pharmacokinetic studies were conducted in mouse, rat, dog, or cynomolgus monkey to determine clearance, oral exposure and bioavailability (% F). Solution doses of the compounds were administered intravenously through catheters or orally by gavage. Blood samples were collected at the following time points (n=2 or 3/route/species): 0.083 (IV only), 0.167 (IV only), 0.25, 0.5, 1, 2, 4, 6, 8, 12, and 24 h. Non-compartmental pharmacokinetic parameters were determined using Phoenix Winnonlin 6.1 (Pharsight, Mountain View, Calif.). Bioavailability of the oral formulation of each compound were calculated as the ratio of the oral dose normalized AUCinf to the intravenous dose normalized AUCinf. Results are expressed in Table 2.

[2] = Hepatocyte incubations, metabolic stability; type: in vitro ADME; parameters: dose or concentration left out as unconfirmed; conditions: cryopreserved human hepatocytes, 0.25×10^6 cells, up to 120 min, 37 C
Experimental: Hepatocyte incubations were conducted using cryopreserved hepatocytes purchased from CellzDirect (Durham, N.C.). Cryopreserved hepatocytes were removed from liquid nitrogen and thawed according to XenoTech's guidelines listed in “XenoTech Protocol for Thawing Cryopreserved Hepatocytes” using Hepatocyte Isolation Kit K2000 (Dec. 13, 2004). Hepatocytes were diluted to 1 million cells in 1 mL of Williams E media containing 25 mM HEPES buffer and 2 mM Glutamax.
Hepatocyte incubations were carried out in 96-well plates on an Eppendorf shaker at 350 rpm at 37 C. Reaction mixtures consisted of 0.25×10^6 cells and […] test compound (to maintain a 0.05% final DMSO concentration) in a final volume of 0.5 mL. An initial time-point (t0) was collected and subsequent aliquots were collected at 15, 30, 60, 90, and 120 min. Reactions were terminated by transferring […] of the incubation mixture into a 96-well plate containing […] of an organic mixture [acetonitrile and methanol (80:20)] at 4° C. Precipitated protein was removed by centrifugation and the resultant supernatant was transferred to a new 96-well polypropylene plate for LC/MS/MS analysis. Drug-free matrix control and 2 QC standards (phenacetin and propranolol) were included in each experiment and treated in the same manner as test compound.
Metabolic stability expressed as the percentage of parent compound remaining was calculated from the peak area ratio of compound remaining after incubation (tx) compared to the time zero (t0) incubation.
The half-life (t1/2) was calculated using the following equation: […]
Where K is the slope of the ln % remaining vs. time regression. Half-life values were only reported when at least 15% loss of parent compound was observed.

[3] = In vivo pharmacokinetic study, monkey; parameters: species or system cynomolgus monkey; conditions: for clearance / Vd / bioavailability: cynomolgus monkey; for clearance / Vd: intravenous; for Vd: read-out: Vss; for bioavailability: oral
Experimental: as §1

[4] = In vivo pharmacokinetic study, dog; conditions: for DNAUC / T 1/2: Dog; for clearance / Vd / bioavailability: dog, blood; for clearance / Vd: intravenous; for Vd: read-out: Vss; for bioavailability: oral
Experimental: as §1

[5] = In vivo pharmacokinetic study, mouse; conditions: for clearance / Vd / bioavailability: blood; for clearance / Vd: intravenous; for Vd: read-out: Vss; for bioavailability: oral
Experimental: as §1

[6] = test system: sub-genomic HCV NS3-NS5B replicon genotype 1b (Huh-7 cells); assay: Replicon luciferase cell based assay, genotype 1b; conditions: Hepatitis C virus; Huh-7 genotype 1b luciferase replicon, 48 hours; read-out: EC50 GT1b
Experimental: (§2) 150 μL of a 1 mM stock solution in DMSO of each test compound was transferred into in the first column of a 96 well, V-bottom microplate, to give 200 times the top concentration of the required dilution series. Aliquots of 50 μL were added to each well of the remaining rows containing 100 μL of DMSO giving a 1:3 dilution series over ten points. Columns 11 and 12 contained DMSO only for the positive and negative control, respectively. 10 μL of each well were transferred into 90 μL of DMEM medium (Invitrogen #41965-039) supplemented with 5% v/v foetal calf serum, 1% v/v non-essential amino acids solution, 100 units/ml penicillin, 100 μg/ml streptomycin and 2 mM L-glutamine to give 20 times the top concentration of the required dilution series.
(§3) Suspensions were prepared from cultures of Huh-7 cells stably transfected with sub-genomic HCV NS3-NS5B replicons of either genotype 1b (the ET subline described by Pietschmann, T., Lohmann, V., Kaul, A., Krieger, N., Rinck, G., Rutter, G., Strand, D. & Bartenschlager, R., Journal of Virology, 2002, 76, 4008-4021), genotype 1a (subline 1.19 constructed in-house from H77 SG-Neo containing adaptive mutations P1496L and S2204I as described by Blight, K. J., McKeating, J. A., Marcotrigiano, J., and Rice, C. M. Journal of Virology, 2003, 77, 3180-3190), genotype 1b C316N (constructed in-house by site directed mutagenesis of the NS5B gene of the ET subline), or genotype 1a C316Y (constructed in-house by site directed mutagenesis of the NS5B gene of H77 SG-Neo containing adaptive mutations P1496L and S2204I as described by Blight, K. J., McKeating, J. A., Marcotrigiano, J., and Rice, C. M. Journal of Virology, 2003, 77, 3180-3190) linked to a firefly luciferase reporter gene. Monolayers nearing confluency were stripped from growth flasks with versene-trypsin solution and the cells re-suspended in assay medium comprising DMEM. 95 μL of suspension containing either 15,000 cells (genotype 1b luciferase replicon) or 20,000 cells (genotype 1a luciferase replicon) were added to all wells of a 96 well plate (Perkin Elmer, #6005686), except medium controls in column 12 of the assay plate. The cell suspension was dosed with 5 μL of compound solution and the plate was incubated for 48 hours at 37° C. in a 5% CO2 atmosphere.
(§4) For toxicity the cells in one plate were treated with Cell Titer Glo (Promega, #G7573). A solution of Cell Titer Glo was prepared according to the manufacturer's instructions, and 100 μL added to each well. The plate was then read for luminescence on an Envision. For potency a solution of Steady Glo (Promega, #E2550) was prepared according to the manufacturer's instructions and 100 μL added to each well. After a twenty minute incubation the plate was then read for luminescence on an Envision.
(§5) Potency: The luminescence values from all compound-free wells containing cells were averaged to obtain a positive control value. The mean luminescence value from the compound-free wells that had received no cells was used to provide the negative (background) control value. The readings from the wells at each compound concentration were taken and after the subtraction of the mean background from all values, were expressed as a percentage of the positive control signal. The quantifiable and specific reduction of luciferase signal in the presence of a drug is a direct measure of replicon inhibition. BioAssay Enterprise (CamebridgeSoft) with the XC50 module for curve fitting was used to plot the curve of percentage inhibition against compound concentration and derive the 50% inhibitory concentration (EC50) for the compound. EC50 is the effective concentration, that is, the concentration of compound where 50% maximal effect is observed. The EC50 values of two identical plates were averaged. The results are presented in Table 1 as EC50 for genotypes (GT) 1a, 1b, 1b 316N and 1a 316Y.

[7] = test system: sub-genomic HCV NS3-NS5B replicon genotype 1a C316Y (Huh-7 cells); assay: Replicon luciferase cell based assay, genotype 1a C316Y; conditions: Hepatitis C virus, Huh-7, 48 h, read-out: EC50 1a 316Y
Experimental: as §2, §3, §4, §5

[8] = test system: sub-genomic HCV NS3-NS5B replicon genotype 1a (Huh-7 cells); assay: Replicon luciferase cell based assay, genotype 1a; conditions: Hepatitis C virus; Huh-7 genotype 1a luciferase replicon, 48 hours; read-out: EC50 GT 1a
Experimental: as §2, §3, §4, §5

[9] = test system: sub-genomic HCV NS3-NS5B replicon genotype 1b C316N (Huh-7 cells); assay: Replicon luciferase cell based assay, genotype 1b C316N; conditions: Hepatitis C virus, Huh-7, 48 h, read-out: EC50 1b 316N
Experimental: as §2, §3, §4, §5

Row | SMILES | DNAUC [1] [ng·h/mL/mg/kg] | T 1/2 [1] [H] | clearance [1] [mL/min/kg] | Vd [1] [L/kg] | bioavailability [1] [%] | half-life [2] [h] | DNAUC ([3]; Monkey) [ng·h/mL/mg/kg] | T 1/2 ([3]; Monkey) [H] | clearance ([3]; blood) [mL/min/kg] | Vd ([3]; blood) [L/kg] | bioavailability ([3]; blood) [%] | DNAUC [4] [ng·h/mL/mg/kg] | T 1/2 [4] [H] | clearance [4] [mL/min/kg] | Vd [4] [L/kg] | bioavailability [4] [%] | DNAUC ([5]; Mouse (avg)) [ng·h/mL/mg/kg] | T 1/2 ([5]; Mouse (avg)) [H] | clearance ([5]; Mouse (avg)) [mL/min/kg] | Vd ([5]; Mouse (avg)) [L/kg] | also measured
1 | CNC(=O)c1c(-c2ccc(F)cc2)oc2cc(N(Cc3cc(F)c4c(c3)COB4O)S(C)(=O)=O)c(C3CC3)cc12 [A] | 541 | 1.7 | 14.5 | 1 | 47 | > 6 | 33 | 2.1 | 70.1 | 6.3 | 13 | 1074 | 5.1 | 12.4 | 3.5 | 71 | 9344 | 4.3 | 0.9 | 0.3 | bioavailability ([5]; Mouse (avg)): 51%
2 | CNC(=O)c1c(-c2ccc(F)cc2)oc2cc(N(Cc3ccc(B(O)O)c(F)c3)S(C)(=O)=O)c(C3CC3)cc12 [D] | 403 | 2.2 | 18.6 | 0.8 | 45 | 1.03 |  |  |  |  |  | 1147 | 4.5 | 10.8 | 3.6 | 70 | 4108 | 5 | 1.4 | 0.6 | DNAUC ([3]; Monkey (plasma)): 101 ng·h/mL/mg/kg; T 1/2 ([3]; Monkey (plasma)): 1.1 H; clearance ([3]; Monkey (plasma)): 48.4 mL/min/kg; Vd ([3]; Monkey (plasma)): 1.8 L/kg; bioavailability ([3]; Monkey (plasma)): 28%; bioavailability ([5]; Mouse (avg)): 37%
3 | CNC(=O)c1c(-c2ccc(F)cc2)oc2cc(N(c3ccc(B(O)O)c(Cl)c3)S(C)(=O)=O)c(C3CC3)cc12 [Example 1, (2-Chloro-4-(N-(5-cyclopropyl-2-(4-fluorophenyl)-3-(methylcarbamoyl)benzofuran-6-yl)methylsulfonamido)phenyl)boronic acid] | 567 | 2.9 | 7.5 | 1.3 | 23 | > 6 | 2953 | 3.7 | 2.2 | 0.5 | 51 | 6438 | 8.7 | 2.3 | 1.6 | 83 |  |  |  |  | EC50 [6]: 1 to 10 nM; EC50 [7]: 1 to 10 nM; EC50 [8]: 1 to 10 nM; EC50 [9]: 1 to 10 nM; DNAUC ([5]; Mouse): 6688 ng·h/mL/mg/kg; T 1/2 ([5]; Mouse): 5.5 H; clearance ([5]; mouse): 0.9 mL/min/kg; Vd ([5]; mouse): 0.4 L/kg; bioavailability ([5]; mouse): 37%
4 | CNC(=O)c1c(-c2ccc(F)cc2)oc2cc(N(c3cc(Cl)c4c(c3)COB4O)S(C)(=O)=O)c(C3CC3)cc12 [Example 15, 6-(N-(7-chloro-1-hydroxy-1,3-dihydrobenzo[c][1,2]oxaborol-5-yl)methylsulfonamido)-5-cyclopropyl-2-(4-fluorophenyl)-N-methylbenzofuran-3-carboxamide] | 1089 | 2.8 | 6.9 | 0.9 | 43 | > 6 |  | 3.7 | 5.7 | 1.2 |  | 11480 | 6.9 | 1.2 | 0.6 | 82 |  |  |  |  | EC50 [6]: 1 to 10 nM; EC50 [7]: 11 to 200 nM; EC50 [8]: 1 to 10 nM; EC50 [9]: 1 to 10 nM; DNAUC ([5]; Mouse): 14603 ng·h/mL/mg/kg; T 1/2 ([5]; Mouse): 8.4 H; clearance ([5]; mouse): 0.7 mL/min/kg; Vd ([5]; mouse): 0.4 L/kg; bioavailability ([5]; mouse): 39%

— patent US9682999B2, “Benzofuran compounds for the treatment of hepatitis C virus infections” (Glaxo Group Limited, priority 2011, dated 2017)
